Experimental data reported in the supplement of paper PMC12137928.
Counter-ions that a name gives are not always drawn.

System: HCT116
Settings: 72 h
Method in brief: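 Four-parameter Hill fits gave IC50 and maximal efficacy. The data were CellTiter-Glo luminescence readings in HCT116 cells, normalized so that vehicle was 0% and positive control was -100%, with pattern correction afterwards.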

Row | Structure (SMILES) | IC50 cell viability (ICRF193 0 nM) | IC50 cell viability (ICRF193 200 nM)
1 | C[C@@H](O)[C@H]1C(=O)N2C(C(=O)O)=C(S[C@@H]3CN[C@H](CNS(N)(=O)=O)C3)[C@H](C)[C@H]12 [Doripenem] | > 45.8 µM | > 45.8 µM
2 | CCN[C@H]1C[C@H](C)S(=O)(=O)c2sc(S(N)(=O)=O)cc21 [Dorzolamide hydrochloride] | > 45.8 µM | > 45.8 µM
3 | CCN1CC(CCN2CCOCC2)C(c2ccccc2)(c2ccccc2)C1=O (stereo not drawn) [Doxapram hydrochloride] | > 45.8 µM | > 45.8 µM
4 | CN(C)CCC=C1c2ccccc2COc2ccccc21 [Doxepin hydrochloride] | > 45.8 µM | > 45.8 µM
5 | C[C@H]1O[C@@H](n2cc(F)c(=O)[nH]c2=O)[C@H](O)[C@@H]1O [Doxifluridine] | > 45.8 µM | > 45.8 µM
6 | CN(C)CCOC(C)(c1ccccc1)c1ccccn1 (stereo not drawn) [Doxylamine succinate] | > 45.8 µM | > 45.8 µM
7 | O=C(CCCN1CC=C(n2c(=O)[nH]c3ccccc32)CC1)c1ccc(F)cc1 [Droperidol] | > 45.8 µM | > 45.8 µM
8 | CCC(=O)O[C@H]1CC[C@H]2[C@@H]3CC[C@H]4CC(=O)[C@H](C)C[C@]4(C)[C@H]3CC[C@]12C [Drostanolone propionate] | > 45.8 µM | > 45.8 µM
9 | N[C@H](C(=O)O)[C@H](O)c1ccc(O)c(O)c1 [Droxidopa] | > 45.8 µM | > 45.8 µM
10 | C[C@]12C=CC(=O)N[C@@H]1CC[C@@H]1[C@@H]2CC[C@]2(C)[C@@H](C(=O)Nc3cc(C(F)(F)F)ccc3C(F)(F)F)CC[C@@H]12 [Dutasteride] | > 45.8 µM | > 45.8 µM
11 | CCCCOc1ccc(C(=O)CCN2CCCCC2)cc1 [Dyclonine hydrochloride] | > 45.8 µM | > 45.8 µM
12 | Cn1c(=O)c2c(ncn2CC(O)CO)n(C)c1=O (stereo not drawn) [Dyphylline] | > 45.8 µM | > 45.8 µM
13 | O=c1c2c(c1=O)N(CCP(=O)(O)O)CCCN2 [EAA-090] | > 45.8 µM | > 45.8 µM
14 | CCOC(=O)COc1ccc2c(=O)cc(-c3ccccc3)oc2c1 [EFLOXATE] | > 45.8 µM | > 45.8 µM
15 | CC1(C)[C@@H](O)CC[C@]2(C)[C@H]3C(=O)C=C4[C@@H]5C[C@@](C)(C(=O)O)CC[C@]5(C)CC[C@@]4(C)[C@]3(C)CC[C@@H]12 [ENOXOLONE] | > 45.8 µM | > 45.8 µM
16 | Cc1ccc(/C=C2/C(=O)C3(C)CCC2C3(C)C)cc1 (stereo not drawn) [ENZACAMENE] | > 45.8 µM | > 45.8 µM
17 | CCOC(=O)CCC(=O)O[C@H]1[C@H](O[C@@H]2[C@@H](C)[C@H](O[C@H]3C[C@@](C)(OC)[C@@H](O)[C@H](C)O3)[C@@H](C)C(=O)O[C@H](CC)[C@@](C)(O)[C@H](O)[C@@H](C)C(=O)[C@H](C)C[C@@]2(C)O)O[C@H](C)C[C@@H]1N(C)C [ERYTHROMYCIN ETHYLSUCCINATE] | > 45.8 µM | > 45.8 µM
18 | C[C@]12CC[C@@H]3c4ccc(OC(=O)c5ccccc5)cc4CC[C@H]3[C@@H]1CC[C@@H]2O [ESTRADIOL BENZOATE] | > 45.8 µM | > 45.8 µM
19 | C[C@]12CC[C@@H]3c4ccc(OS(=O)(=O)O)cc4CC[C@H]3[C@@H]1CCC2=O [ESTROPIPATE] | > 45.8 µM | > 45.8 µM
20 | CC1=NN(c2ccccc2)C(=O)C1 [Edaravone] | > 45.8 µM | > 45.8 µM
21 | CN1CCc2nc(C(=O)N[C@@H]3C[C@@H](C(=O)N(C)C)CC[C@@H]3NC(=O)C(=O)Nc3ccc(Cl)cn3)sc2C1 [Edoxaban tosylate monohydrate] | > 45.8 µM | > 45.8 µM
22 | CC[N+](C)(C)c1cccc(O)c1 [Edrophonium chloride] | > 45.8 µM | > 45.8 µM
23 | C=C1CCN([C@H](C)[C@](O)(Cn2cncn2)c2ccc(F)cc2F)CC1 [Efinaconazole] | > 45.8 µM | > 45.8 µM
24 | NCCCC(N)(C(=O)O)C(F)F (stereo not drawn) [Eflornithine Hydrochloride] | > 45.8 µM | > 45.8 µM
25 | CC/C=C\C/C=C\C/C=C\C/C=C\C/C=C\CCCC(=O)O [Eicosapentaenoic Acid] | > 45.8 µM | > 45.8 µM
26 | CC/C=C\C/C=C\C/C=C\C/C=C\C/C=C\CCCC(=O)OCC [Eicosapentaenoic acid ethyl ester] | > 45.8 µM | > 45.8 µM
27 | CCCCCCCC/C=C/CCCCCCCC(=O)O [Elaidic Acid] | > 45.8 µM | > 45.8 µM
28 | COC(=O)N[C@H](C(=O)N1CCC[C@H]1c1nc(-c2ccc3c(c2)O[C@@H](c2ccccc2)n2c-3cc3cc(-c4c[nH]c([C@@H]5CCCN5C(=O)[C@@H](NC(=O)OC)C(C)C)n4)ccc32)c[nH]1)C(C)C [Elbasvir] | > 45.8 µM | > 45.8 µM
29 | C=C1/C(=C\C=C2/CCC[C@]3(C)[C@@H]([C@H](C)CCCC(C)(C)O)CC[C@@H]23)C[C@@H](O)[C@@H](OCCCO)[C@@H]1O [Eldecalcitol] | > 45.8 µM | > 45.8 µM
